Measured values published in patent US20050214886A1, “TNF modulation” (YEDA RESEARCH AND DEVELOPMENT CO. LTD., priority 1995, published 2005).

Test system: 26 kDa TNF molecules in HeLa-M9 cells
Experiment: [32P] metabolic labeling and immunoprecipitation: phosphorylation of 26 kDa TNF
Assay type: cell-based, human
Details: preliminary experiments, data not shown
Text: The intracellular region is the only part of the TNF molecule accessible for phosphorylation by cytoplasmic protein kinases. The specific kinases involved in TNF phosphorylation are not known, nor is it known if, and in what way, the activity of these kinases is subject to modulation by agents that affect TNF activity. Evidently, the phosphorylation observed in the HeLa-M9 cells, in which TNF was synthesized without stimulation, reflects the function of kinase(s) that constitutively act in these cells. On the other hand, the phosphorylation observed in the LPS-stimulated MM6 cells could involve effects of LPS activated protein kinases (Liu et al., 1994; Han et al., 1995). The serine at position −50 seems to be a suitable substrate for phosphorylation by protein kinase C (Kennelly and Krebs, 1991).
Labeling of cells with [^35S]Met or [^32P) orthophosphate was performed by incubation in Met-free or phosphate-free medium, supplemented with 5 or 10% FCS, that had been dialyzed against either PBS or 0.9% NaCl, respectively. […]
Immunoprecipitation was performed using sheep anti-TNF antiserum or, as a control, non-immune sheep serum, at a dilution of 1:200. […] The immunoprecipitated proteins were analyzed by SDS-PAGE under reducing conditions (12% acrylamide). […]

CCCCCCCCCCCCCC(=O)O[C@@H]1[C@@H](C)[C@@]2(O)[C@@H](C=C(CO)C[C@]3(O)C(=O)C(C)=C[C@@H]23)[C@@H]2C(C)(C)[C@]12OC(C)=O [4β-phorbol-12-myristate-13-acetate] was tested, and the “increase of phosphorylation of the 26 kDa TNF molecules” value was “did not observe any increase of phosphorylation”.
